From US10786475B2, “Method for preventing, treating, or improving fatty liver by administering effective amounts of azelaic acid to a subject” (Korea University Research and Business Foundation, priority 2018, dated 2020) come the findings set out here.

Holding throughout (type): cell-based, mouse
Test [1] concerns Hepa1c1c-7 cells stimulated by LPS. The experiment in a line: IL-6 and TNF-α gene expression (qPCR) in LPS-treated Hepa1c1c-7 cells. Particulars: compared with control group. As for the experimental part: 1 μg of RNA extracted from Hepa1c1c-7 hepatocytes was used to synthesize cDNA by using a ReverTra Ace® qPCR RT kit (TOYOBO, Osaka, Japan). More particularly, to increase the efficiency of an RT-PCR reaction, the extracted RNA was treated at 65° C. for 5 minutes, and immediately stored on ice. Afterward, a total of 8 μL of a reaction mixture was prepared with 2 μL of a 4×DNA Master Mix containing a gDNA remover, 0.5 μg of RNA and distilled water (nuclease-free water), and reacted at 37° C. for 5 minutes. And then, a 5×RT Master mix was added to the reaction mixture, reacted at 37° C.-5 min, 50° C.-5 min and 98° C.-5 min to synthesize cDNA.
PCR was performed with the cDNA synthesized by the above-described method using a THUNDERBIRD SYBR qPCR Mix (TOYOBO, Osaka, Japan) and an iQ5 iCycler system (Bio-Rad, California, USA). More particularly, amplification was performed with initial denaturation at 95° C. for 4.5 minutes, and 40 cycles of additional denaturation at the same temperature for 10 seconds, annealing and cooling at 55 to 60° C. for 30 seconds, and elongation at 68° C. for 20 seconds. The expression level of each gene was normalized using GAPDH expression. Primers were designed using the Nucleotide BLAST Software of the National Center for Biotechnology Information (NCBI), and purchased from Bionics (Seoul, Korea).
(In general: Quantitative PCR measures a nucleic acid by following its amplification.)

A further test concerns PPARα. Description: PPARα gene expression by qPCR in Hepa1c1c-7 cells. To be noted: 50 μM AzA, 2 hours, compared with control group. As for the experimental part:
To confirm the change in PPARα gene expression level by an AzA, Hepa1c1c-7 cells were seeded onto a 24-well plate at 5×10^5 cells/mL, cultured for 24 hours, and treated with 50 μM of AzA for 2 hours. Subsequently, RNA was extracted, and cDNA synthesis was performed from the extracted RNA using a ReverTra Ace® qPCR RT kit (TOYOBO, Osaka, Japan). More specifically, to increase PCR efficiency, the extracted RNA was treated at 65° C. for 5 minutes, and the resulting product was immediately stored on ice. Subsequently, a total of 8 μL of a reaction mixture was prepared with 2 μL of a 4×DNA Master Mix containing a gDNA remover, 0.5 μg of RNA and distilled water (nuclease-free water), and reacted at 37° C. for 5 minutes. Subsequently, a 5×RT Master mix was added to the reaction mixture, reacted at 37° C. for 5 minutes, at 50° C. for 5 minutes and at 98° C. for 5 minutes to synthesize cDNA. The cDNA synthesized by the above method was subjected to qPCR using a THUNDERBIRD SYBR qPCR Mix (TOYOBO) and an iQ5 iCycler system (Bio-Rad, California, USA) according to a method known to those of ordinary skill in the art. More particularly, amplification was performed with initial denaturation at 95° C. for 4.5 minutes, and 40 cycles of additional denaturation at the same temperature for 10 seconds, annealing and cooling at 55 to 60° C. for 30 seconds, and elongation at 68° C. for 20 seconds. […]

The subject of another test is Olfr544. Description: p-CREB/CREB western blotting in Hepa1c1c-7 cells, normal and Olfr544 knockdown. The text has this: To more clearly confirm whether an AzA acts as an Olfr544 ligand, an Olfr544 knockdown cell line was constructed using a vector including shRNA, and protein expression levels of normal cells and knockdown cells were compared by performing an experiment as follows. To construct an Olfr544 knockdown cell line, particularly, an oligonucleotide (top strand [SEQ ID NO: 1]: 5′-[…]-ACAGTGAG-3′) encoding an Olfr544-targeted shRNA hairpin sequence or an oligonucleotide (top strand [SEQ ID NO: 2]: 5′-[…]-3′) encoding non-targeting scrambled shRNA hairpins were inserted into an shRNA cloning site of a pENTR/U6 vector using a BLOCK-iT U6 RNAi entry vector kit (Invitrogen). Subsequently, Hepa1c1c-7 or 3T3-L1 cells were seeded on a 6-well plate and transfected with 2.5 μg of Olfr544 shRNA or scrambled shRNA using 10 μL Lipofectamine 2000 (Invitrogen) for 48 hours, thereby constructing an Olfr544 knockdown cell line. […]
To confirm whether an Olfr544 protein was expressed, protein fractions (cell membrane protein, cytosol protein) and total proteins (whole protein extract), which were extracted by the method of Example 2-3, were quantified by a Bradford method. […] The expression level of each gene was standardized using β-actin or GAPDH expression, and the comparison of the contents of protein bands of western blots was quantified and digitized using software (Gel-Pro Analyzer 4.0). […]

`O=C(O)CCCCCCCC(=O)O` [AzA, nonanedioic acid]: in test [1], the IL-6 gene expression result was “significantly decreased” and the TNF-α gene expression entry is reported as “significantly decreased”. Also, the PPARα expression entry in the test with PPARα is on record as “significant increase”. In the test on Olfr544 (Hepa1c1c-7 cells with Olfr544 knockdown by shRNA transfection), the “increase in p-CREB/CREB ratio” value is on record as “not observed”. Also, in the test on Olfr544 (Hepa1c1c-7 cells, AzA-treated group), the p-CREB/CREB ratio entry is reported as “significantly increased”.
